# Measured values published in PMC3904487, “The effect of piperine on midazolam plasma concentration in healthy volunteers, a research on the CYP3A-involving metabolism” (DARU Journal of Pharmaceutical Sciences, 2014).
# Values joined by “and” are separate entries in the source; they are usually repeats but may differ in a detail not shown here. Identical values can stand only once.
# What was measured:
# [1] = Clinical features (sedation, amnesia, side effects) after oral midazolam in placebo and piperine pretreatment groups; assay type: in vivo, human; conditions: midazolam 10 mg oral; for End of drug effect / duration of sedation / Onset of drug effect (sedative effect of midazolam): n=20, mean (±SD)
# [2] = Midazolam plasma concentration (HPLC) and one-compartment PK after placebo or piperine pretreatment in healthy volunteers
# Description: This was a cross-over controlled study on two groups (n=10) of healthy volunteers. A one-month period was considered as wash out time between two trials. […] Inclusion criteria: being healthy; age ranging 18 to 35; normal diet; not receiving microsomal enzyme inhibitor or inducer agents for at least 7 days before the study; not using black pepper for at least 7 days before the study. Exclusion criteria: age being below 18 and above 35; smocking; pregnancy; metabolic disorders; high pepper diet, receiving enzyme inhibitors or inducers.
# Healthy volunteers regardless of gender were randomly divided into two control and piperine receiving groups (n=20 per group). The subject received placebo or piperine (1 capsule 15 mg of piperine daily for 3 days before midazolam) and midazolam (10 mg as an oral single dose) on fourth day of the study. […] Blood samples (maximum 10 ml) were taken at 0.5, 2.5 and 5 hour after midazolam administration. After a month as a wash out period, the treatment program was exchanged between placebo and piperine groups and all steps were done as same as the previous.
# Blood samples were transferred into labeled tubes containing Ca-EDTA and shake gently to mix Ca-EDTA with blood for preventing of coagulation.The samples were centrifuged at 3500 ×g for 15 min and supernatant plasma layer transferred into a blank tube. Until the assay of midazolam or diazepam concentration, the plasma samples were kept at −20°C.
# For measurement of the drugs concentration, plasma samples were removed from the freezer condition and left in the laboratory to convert from frozen into a liquid sample. Then 0.5 ml of thawed plasma sample was transferred into a capped falcon tube. In the next step, 100 micl of 1 M NaOH and 100 micl isoamyl alcohol were added. After a gently shaking, 4.5 ml of n-hexan was added and shake for 1 minute. The final solutions were centrifuged at 300 ×g for 5 min. After this step, 4.2 ml of supernatant was drawn and transferred into a plastic tube and 100 miclof 0.05 M HCl was added to the solution and centrifuged similar as the previous. Then the supernatant (organic layer) was discarded and the remaining was directly injected into the HPLC.
# The separation was carried out at ambient temperature using a single-column isocratic reverse-phase method. The mobile phase consisted of 75% methanol and 25% water. Flow rate was set at 0.8 ml/min. The extracts were detected by UV detector at 242 nm wavelength. Twenty micl of the aqueous layer of final extract was injected into the HPLC using a Hamilton’s syringe. The injection was repeated 3 times for each sample. Peaks area and height were considered for midazolam and diazepam detection and used for calculation of the drugs concentration in the final plasma extract.
# The second; pharmacokinetic (PK) parameters such as absorption rate constant (Ka), clearance, half-life and volume of distribution of midazolam in the placebo and piperine groups were calculated based on assumed one-compartment kinetics using P-Pharm software.
# Based on non-parametric distribution, data of three concentrations by time were analyzed using Friedman test. Wilcoxon U-test was used for the results of clearance, volume of distribution and half-life of midazolam in piperine group compared to placebo. The difference of the PK parameters between two groups was considered statistically significant at p<0.05.
# [3] = piperine 15 mg x 3 days pretreatment
# [4] = piperine 15 mg x 3 days pretreatment, of n=20
# [5] = placebo pretreatment, midazolam 10 mg oral, n=20
structure (smiles),measurement,setting,value
"O=C(/C=C/C=C/c1ccc2c(c1)OCO2)N1CCCCC1 [Piperine, piperine]",Subjects with severe sedation and dizziness,[1]; [3],55%
same,End of drug effect / duration of sedation,[1]; [3],188 (±59) min
same,Onset of drug effect (sedative effect of midazolam),[1]; [3],11.75 (±4.9) min
same,End of drug effect / duration of sedation,"[1]; piperine 15 mg x 3 days pretreatment, listed as piperine",188 ± 59 min
same,"Amnesia (frequency, subjects)",[1]; [4],7
same,"Sedation (frequency, subjects)",[1]; [4],20
same,"Amnesia (frequency, subjects)","[1]; piperine 15 mg x 3 days pretreatment, of n=20, listed as piperine",Seven
same,Subjects with hiccup when receiving midazolam,"[1]; piperine 15 mg x 3 days pretreatment, disappeared during first hours",One
Cc1ncc2n1-c1ccc(Cl)cc1C(c1ccccc1F)=NC2 [midazolam],AUC(0-t),"[2]; both, human, plasma, po, 10 mg",411 ± 235 ng·h/mL
same,half-life,"[2]; both, human, plasma, po, 10 mg",1.71 h
same,Time of maximum plasma midazolam concentration,"[2]; placebo group, after midazolam 10 mg oral, population concentration-time curve",1.5 h
same,"Kel, elimination rate constant of midazolam (Max)",[2]; [5],0.42
same,"Kel, elimination rate constant of midazolam (Min)",[2]; [5],0.390
same,"Kel, elimination rate constant of midazolam (mean)",[2]; [5],0.41
same,"T1/2, half-life of midazolam (Max)",[2]; [5],1.78 h
same,"T1/2, half-life of midazolam (Min)",[2]; [5],97.8 min
same,Volume (of distribution) of midazolam (Max),[2]; [5],93.03
same,Volume (of distribution) of midazolam (Min),[2]; [5],87.63
same,Volume (of distribution) of midazolam (mean),[2]; [5],91.44
same,Subjects with severe sedation and dizziness,[1]; placebo pretreatment,30%
same,End of drug effect / duration of sedation,[1]; placebo pretreatment,102±43 min and 102 (±43) min
same,Onset of drug effect (sedative effect of midazolam),[1]; placebo pretreatment,11.25 (±4.5) min
same,"Amnesia (frequency, subjects)","[1]; placebo pretreatment, of n=20",4
